Reference: article PMC4052451 (Journal of medicinal chemistry, 2013)
*: point of attachment. Dnp = O=[N+]([O-])c1ccc(*)c([N+](=O)[O-])c1; Mca = COc1ccc2c(CC(=O)*)cc(=O)oc2c1

What was measured:
N-domain of sACE-1 = N-domain of sACE-1 (Homo sapiens, UniProt P12821); assay: Reversible inhibition of the N-domain of sACE-1, fluorogenic substrate Abz-SDK; type: biochemical; settings: Abz-SDK(Dnp)P-OH 7.5, 10, 15 µM; absence of co-reactants
C-domain of sACE-1 = C-domain of sACE-1 (Homo sapiens, UniProt P12821); assay: Reversible inhibition of the C-domain of sACE-1, fluorogenic substrate Abz-LFK; type: biochemical; settings: Abz-LFK(Dnp)-OH 7.5, 10, 15 µM; absence of co-reactants
C-domain of sACE-1, sequence (P12821 30-1261): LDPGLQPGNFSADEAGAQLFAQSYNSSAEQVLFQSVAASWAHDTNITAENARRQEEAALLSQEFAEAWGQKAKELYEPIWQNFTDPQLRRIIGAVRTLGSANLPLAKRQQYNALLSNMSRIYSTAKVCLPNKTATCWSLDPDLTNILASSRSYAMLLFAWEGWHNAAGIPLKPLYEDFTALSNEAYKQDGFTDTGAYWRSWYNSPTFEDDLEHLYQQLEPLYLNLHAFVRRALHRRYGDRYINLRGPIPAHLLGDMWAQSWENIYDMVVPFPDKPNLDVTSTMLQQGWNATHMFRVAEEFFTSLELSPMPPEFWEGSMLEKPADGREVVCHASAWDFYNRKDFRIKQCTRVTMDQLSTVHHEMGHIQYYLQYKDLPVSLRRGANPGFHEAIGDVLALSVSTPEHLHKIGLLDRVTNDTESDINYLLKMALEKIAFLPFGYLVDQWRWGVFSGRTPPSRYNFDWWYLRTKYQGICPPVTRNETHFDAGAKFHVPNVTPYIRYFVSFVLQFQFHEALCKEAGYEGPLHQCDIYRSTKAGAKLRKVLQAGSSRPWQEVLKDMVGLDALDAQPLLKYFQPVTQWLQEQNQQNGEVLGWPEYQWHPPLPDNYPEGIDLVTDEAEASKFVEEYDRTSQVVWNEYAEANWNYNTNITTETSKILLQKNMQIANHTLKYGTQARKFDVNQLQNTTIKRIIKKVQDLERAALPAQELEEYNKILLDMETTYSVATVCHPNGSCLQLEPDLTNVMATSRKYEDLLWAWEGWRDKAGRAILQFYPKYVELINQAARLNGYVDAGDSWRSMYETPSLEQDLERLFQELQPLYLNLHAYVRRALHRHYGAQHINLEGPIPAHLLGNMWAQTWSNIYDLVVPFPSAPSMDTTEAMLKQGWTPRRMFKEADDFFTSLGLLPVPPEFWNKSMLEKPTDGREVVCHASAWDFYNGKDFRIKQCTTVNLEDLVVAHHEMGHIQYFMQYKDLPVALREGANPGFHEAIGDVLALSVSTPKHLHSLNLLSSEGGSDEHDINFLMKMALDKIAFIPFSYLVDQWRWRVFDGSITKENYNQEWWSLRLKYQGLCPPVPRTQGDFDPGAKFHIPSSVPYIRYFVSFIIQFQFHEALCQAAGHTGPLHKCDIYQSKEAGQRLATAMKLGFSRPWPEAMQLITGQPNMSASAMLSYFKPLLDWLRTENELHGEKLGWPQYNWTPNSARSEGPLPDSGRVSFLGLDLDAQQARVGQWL

[1] = ref [15],[24]; cited from earlier work
ACE = settings: ref [38]; cited from earlier work
[2] = in SHR; ref [38]; cited from earlier work
sACE-1 = sACE-1 (Homo sapiens, UniProt P12821); settings: generic substrate of previous study; ref [30]; cited from earlier work
sACE-1, sequence (P12821 30-1261): as above

N-domain of sACE-1, sequence (P12821 30-1261): as above

NCCCC[C@H](N[C@@H](CCc1ccccc1)C(=O)O)C(=O)N1CCC[C@H]1C(=O)O [Lisinopril]
Inhibition mode by Dixon plot (N-domain) (N-domain of sACE-1): competitive inhibitors
Inhibition mode by Dixon plot (C-domain) (C-domain of sACE-1): competitive inhibitors

Ac-Asp-(L)Pheψ(PO2-CH2)(L)Ala-Ala-NH2 [RXP407]
Effect on blood pressure regulation [1]: no effect on blood pressure regulation

Ile-Pro-Pro
IC50 (ACE): 5 µM
lowers blood pressure [2]: ≤ 30 mmHg

Mca-RPPGFSAFK(Dnp)-OH (SMILES COc1ccc2c(CC(=O)N[C@@H](CCCNC(=N)N)C(=O)N3CCC[C@H]3C(=O)N3CCC[C@H]3C(=O)NCC(=O)N[C@@H](Cc3ccccc3)C(=O)N[C@@H](CO)C(=O)N[C@@H](C)C(=O)N[C@@H](Cc3ccccc3)C(=O)N[C@@H](CCCCNc3ccc([N+](=O)[O-])cc3[N+](=O)[O-])C(=O)O)cc(=O)oc2c1)
Km (sACE-1): 4.5 ± 0.6 µM
kcat (sACE-1): 20.33 ± 0.833 s⁻¹
